Earlier results as cited in EP1997479A1, “Stabilized amorphous candesartan cilexetil compositions for oral administration” (Helm AG, priority 2007, dated 2008).

For CCOc1nc2cccc(C(=O)OC(C)OC(=O)OC3CCCCC3)c2n1Cc1ccc(-c2ccccc2-c2nnn[nH]2)cc1 (racemic) [Candesartan cilexetil, (±)-1-(Cyclohexyloxycarbonyloxy)ethyl 2-ethoxy-1-[[2'-(1H-tetrazol-5-yl)biphenyl-4-yl]methyl]-1 H-benzimidazole-7-carboxylate], which solubility in water is on record?
The solubility in water was “low solubility in water”.
